# Patent US10781236B2, “Bacteriocin composition and method” (priority 2015, dated 2020)
# Where two headings read alike, the source gives them in different places. Where a SMILES comes first, the peptide text is derived from it.
# Assays:
# L. lactis IL1403 = assay type: cell-based, Lactococcus lactis
# Description: The bacteriocin activity was assayed using a microtitre plate assay (Holo et al., 1991, supra). The plates were incubated at 30° C. for 8 h and the growth was measured spectrophotometrically at 600 nm (A600) with 15 min intervals using SPECTROstarNano (BMG LABTECH, Germany). The MIC was defined as the minimal bacteriocin concentration that inhibited the growth of the indicator strain by at least 50% (50% of the turbidity of the control culture without bacteriocin) in 200 μl culture. MIC is equal to one bacteriocin unit (BU).
# All the peptides in the experiments were synthesized by Pepmic Co., LTD, China with 90-99% purity except for CerHA, CerHB and CerVC (85% purity). Aureocin A70F is almost identical to bacteriocin AureocinA70, both being made up of four peptides (peptide A, B, C and D) but in peptide D of Aureocin A70F leucine 29 is replaced with phenylalanine (EWU40578.1). Synthesized peptides were solubilized to a concentration of 0.1 to 10 mg/ml in 0.1% (vol/vol) trifluoroacetic acid and stored at −20° C. until use.
# The three identified peptides termed GarKosA, GarKosB and GarKosC were chemically synthesized and tested for antimicrobial activity. The antimicrobial activity of the individual peptides was assessed against L. lactis IL1403 (Table 6).
# [1] = Tryptophan-to-alanine GarA variants, antibacterial activity; assay type: cell-based; conditions: in combination with the other peptides of Garvicin KS
# Description: The three tryptophan residues in GarA were replaced one by one with alanine (Table 9). Antibacterial activity was tested when used in combination with the other peptides of Garvicin KS.
Compound,"MIC, single peptide (L. lactis IL1403; IL1403, 8 h) [µM]",also measured
CC[C@H](C)[C@H](NC(=O)[C@H](CCCCN)NC(=O)[C@H](CCCCN)NC(=O)[C@H](CC(C)C)NC(=O)CNC(=O)CNC(=O)[C@H](Cc1ccc(O)cc1)NC(=O)[C@@H](NC(=O)[C@H](C)NC(=O)CNC(=O)CNC(=O)[C@H](C)NC(=O)[C@@H](NC(=O)CNC(=O)CNC(=O)[C@H](C)NC(=O)[C@H](Cc1ccccc1)NC(=O)[C@H](C)NC(=O)[C@H](CCCCN)NC(=O)CNC(=O)[C@H](CC(C)C)NC(=O)[C@H](CCSC)NC(=O)[C@H](CCCCN)NC(=O)[C@@H](NC(=O)[C@H](C)NC(=O)[C@H](C)NC(=O)CNC(=O)[C@@H](N)CCSC)C(C)C)C(C)C)[C@@H](C)O)C(=O)N[C@@H](Cc1ccccc1)C(=O)NCC(=O)O [CerV B] (H-MGAAVKMLGKAFAGGVAGGATYGGLKKIFG-OH; N-terminus and C-terminus assumed),>6,–
CC[C@H](C)[C@H](NC(=O)[C@H](CCCNC(=N)N)NC(=O)[C@@H](NC(=O)CNC(=O)[C@H](C)NC(=O)[C@H](CCC(=O)O)NC(=O)[C@H](Cc1c[nH]c2ccccc12)NC(=O)CNC(=O)[C@H](CC(C)C)NC(=O)[C@H](Cc1c[nH]c2ccccc12)NC(=O)[C@H](CO)NC(=O)[C@H](C)NC(=O)[C@H](C)NC(=O)[C@@H](NC(=O)CNC(=O)CNC(=O)[C@@H](NC(=O)[C@@H](NC(=O)[C@H](CCCCN)NC(=O)[C@H](CC(C)C)NC(=O)CNC(=O)CNC(=O)[C@H](CCCCN)NC(=O)[C@@H](NC(=O)[C@@H](NC(=O)[C@H](C)NC(=O)CNC(=O)[C@@H](N)CCSC)C(C)C)C(C)C)[C@@H](C)CC)[C@@H](C)CC)[C@@H](C)O)[C@@H](C)O)C(=O)N[C@@H](Cc1c[nH]c2ccccc12)C(=O)N[C@@H](CCCCN)C(=O)O [CerV C] (H-MGAVVKGGLKIIGGTAASWLGWEAGTRIWK-OH; N-terminus and C-terminus assumed),>6,–
CC[C@H](C)[C@H](NC(=O)[C@H](C)NC(=O)CNC(=O)[C@@H](N)CCSC)C(=O)N[C@H](C(=O)N[C@@H](CCCCN)C(=O)N[C@@H](C)C(=O)NCC(=O)N[C@@H](C)C(=O)N[C@@H](CCCCN)C(=O)N[C@H](C(=O)N[C@H](C(=O)NCC(=O)N[C@@H](CCCCN)C(=O)NCC(=O)N[C@@H](C)C(=O)N[C@@H](CC(C)C)C(=O)N[C@H](C(=O)NCC(=O)NCC(=O)NCC(=O)N[C@H](C(=O)N[C@@H](Cc1c[nH]c2ccccc12)C(=O)N[C@@H](CC(C)C)C(=O)N[C@@H](C)C(=O)N[C@@H](CCC(=O)O)C(=O)N[C@@H](CCCCN)C(=O)N[C@@H](CC(C)C)C(=O)N[C@@H](Cc1ccccc1)C(=O)NCC(=O)NCC(=O)N[C@@H](CCCCN)C(=O)O)C(C)C)[C@@H](C)O)C(C)C)[C@@H](C)CC)[C@@H](C)CC [Kos C] (H-MGAIIKAGAKIVGKGALTGGGVWLAEKLFGGK-OH; N-terminus and C-terminus assumed),–,"MIC, single peptide (L. lactis IL1403; L. lactis IL1403, synthetic single peptide, >=50% growth inhibition): 6 µM"
MGAIIKAGAKIVGKGVLGGGASWLGANVGEKIWK (Altered Sequence of GarA from Lactococcus garvieae with W26A Mutation) [GarA-26A],–,antibacterial activity in words [1]: no antibacterial activity
